The text below walks through data of patent publication US20130137753A1, “METHODS AND COMPOSITIONS FOR THE DIAGNOSIS AND TREATMENT OF BREAST CANCER” (UNIVERSITY OF SOUTH ALABAMA, priority 2010, published 2013).

Experiment [1] deals with Merlin. In words: Western blot of Merlin in MDA-MB-435 cells treated with Lactacystin and wortmannin. It counts as cell-based. Conditions: combined treatment Lactacystin 10-25 μM and wortmannin 100 nM, FIG. 4E. How it is done: FIG. 4 depicts OPN targeting Merlin for Akt-mediated proteasomal degradation. FIG. 4A is a Western blot of SUM159 cells transfected with Merlin and treated with OPN and Lactacystin. […] The smear represents ubiquitinated Merlin. FIG. 4D is a Western blot of SUM159 transfected with HA-ubiquitin and Merlin and treated with OPN (100 ng/ml), Lactacystin (10 μM) and Akt inhibitor IV. FIG. 4E is a Western blot of MDA-MB-435 cells treated with the PI-3-kinase inhibitor, wortmannin and Lactacystin. Cells were pre-treated with Wortmannin (100 nM) for 1 hr followed by Lactacystin for 4.5 hours.
The converse was seen when MDAMB-435 cells were treated with the proteasome inhibitor, Lactacystin (10-25 μM) and the PI-3-kinase inhibitor, wortmannin (100 nM). […] Silencing the expression of OPN reduced the overall levels of ubiquitinated Merlin; in combination with Akt inhibitor and Lactacystin, abrogating OPN expression caused a notable decrease in the ubiquitinated Merlin (FIG. 4F).

Another experiment concerns Akt. In words: Western blot of phospho-Akt and Merlin in MCF10AT cells treated with OPN and Akt inhibitor IV. It counts as cell-based, human. As to conditions: FIG. 4B. From the text:
(§1) Western Blotting Analysis—Immunoblotting was done with anti-Merlin (Santa Cruz Biotech, Santa Cruz, Calif.), phospho-Ser473-Akt (Cell Signaling, Danvers, MAT), total Akt (Cell Signaling), anti-mouse HA (Santa Cruz), antiphospho-Ser315 Merlin, and anti-GAPDH (Cell Signaling). Anti-rabbit or anti-mouse HRP conjugated secondary antibody was used for detection and blots were developed with SuperSignal substrate (Pierce, Rockford, Ill.) and exposed using a Fuji LAS3000 imager.
(§2) Transfection and Drug Treatment—Cells were transfected with empty vector, Merlin (WT; wild-type) or T230A S315A Merlin mutant and treated with clasto-Lactacystin β-Lactone (Sigma, St. Louis, Mo.) for 2 hours. Recombinant OPN (100 ng/mL) (R&D Systems, Minneapolis, Minn.) was added and cells were lysed after 6 hours. Where indicated, cells were first treated with Akt inhibitor IV (Calbiochem) in serum free media for 30 min followed by 100 ng/mL human rOPN for 24 hours.
OPN interacts with a variety of cell surface receptors including CD44 and multiple integrins to activate signaling via the Akt pathway (31,38,39). […] The levels of total Akt remain unaltered. MCF10AT cells were also treated with Akt inhibitor IV in addition to OPN. […] Phosphorylation of Merlin via Akt targets it for degradation by the proteasome (15,40,41).

Experiment [2] deals with Merlin. In words: Immunoprecipitation of endogenous Merlin and anti-HA blot for ubiquitination in MCF10AT cells transfected with HA-ubiquitin. It counts as cell-based, human. How it is done: (§3) Immunoprecipitation—Cells were transfected with pcDNA3.1 HA-ubiquitin alone or in combination with pIRES2-myc-Merlin and incubated for 24 hrs. Cells were treated with 10 μM Lactacystin, 100 ng/ml OPN and 10 μM AKT inhibitor IV for 12 hrs and lysed in NP-40 buffer. The lysate was immunoprecipitated with anti-Merlin antibody and the immunoprecipitate was assessed by immunoblotting.
To examine if OPN can induce ubiquitination of endogenous Merlin leading to its proteasomal degradation, MCF10AT cells were transfected with a HA-ubiquitin expressing construct. MCF10AT cells were transfected with HA-ubiquitin and treated with OPN, Lactacystin and Akt inhibitor IV. Cell lysate (2 mg) harvested in NP40 buffer was immunoprecipitated overnight for endogenous Merlin. The immunoprecipitate was immunoblotted with anti-HA antibody. Merlin and GAPDH levels from the cell lysates were inputs for the experiment.

The test system of experiment [3] is Merlin. In words: Immunoprecipitation of Merlin and anti-HA blot for ubiquitination in SUM159 cells transfected with HA-ubiquitin and Merlin. In kind it is cell-based, human. Conditions: SUM159 cells constitutively expressing Merlin, OPN 100 ng/ml, Lactacystin 10 μM, FIG. 4D. How it is done: as §3
To assess the role of activated Akt induced by OPN, cells were co-treated with an Akt inhibitor. SUM159 cells were transfected with HA-ubiquitin and Merlin and treated with OPN (100 ng/ml), Lactacystin (10 μM) and Akt inhibitor IV. Cell lysate (1 mg) harvested in NP40 buffer was immunoprecipitated for Merlin. The immunoprecipitate was immunoblotted with anti-HA antibody. […] Merlin ubiquitination was enhanced when co-treated with OPN and was abolished in the presence of Akt inhibitor re-affirming the role of Akt downstream of OPN in modulating the stability of Merlin (FIG. 4D).

The test system of experiment [4] is Merlin. In words: Western blot of Merlin protein levels in SUM159 cells transfected with Merlin cDNA and treated with recombinant OPN and Lactacystin. In kind it is cell-based, human. Conditions: SUM159 cells transfected with Merlin cDNA, recombinant OPN 100 ng/mL, FIG. 4A.
Excerpt: as §1, §2
Akt signaling initiated downstream of OPN may regulate Merlin. To examine the effects of OPN on the post-translational regulation of Merlin, specifically the stability of Merlin protein, SUM159 breast cancer cells were transfected with Merlin cDNA and treated with recombinant OPN.

Experiment [5] has as its system Merlin. In words: Western blot of phosphorylated Merlin (Serine 315) in SUM159 cells transfected with Merlin and treated with OPN. It counts as cell-based, human. As to conditions: SUM159 cells transfected with Merlin, treated with OPN, FIG. 5A.
Excerpt: as §1
Lysate from SUM159 cells transfected with Merlin and treated with OPN was probed for total Merlin and phosphorylated Merlin (Serine 315). GAPDH was used as a loading control. […] Phosphorylation of Merlin at this residue has been reported to target it for proteasome-mediated degradation (15,40). In particular, […] of Serine 315 and Threonine 230 makes Merlin refractory to OPN. SUM159 cells were transfected with Merlin (WT) or the T230A/S315A Merlin mutant and treated with OPN and Lactacystin. Cell lysates were probed for total Merlin. GAPDH was used as a loading control. Mutant Merlin (T230A S315A) is not degraded in response to OPN, whereas wild-type Merlin is degraded by OPN. […] It was further determined that while OPN is able to induce degradation of Merlin, the Merlin mutant T230A S315A (that cannot be phosphorylated by Akt) is resistant to the effects of OPN (FIG. 5B). […]
Background: Immunoblotting shows a protein as a band on a membrane.

Turning to `CC(=O)N[C@@H](CSC(=O)[C@]1([C@@H](O)C(C)C)NC(=O)[C@H](C)[C@@H]1O)C(=O)O`, the Merlin expression entry in the experiment with Merlin [1] is on record as “restored Merlin expression”.

Regarding Akt inhibitor IV, in the experiment with Akt (Akt inhibitor IV in addition to OPN), the “levels of Akt phosphorylation” value is on record as “decreased”. Also, in the experiment on Akt (Akt inhibitor IV in the presence of OPN), the “levels of Merlin” value was “restored”. The “ubiquitination of endogenous Merlin” value in the experiment on Merlin [2] (co-treatment with Akt inhibitor in the presence of OPN) was “abolished”. Also, the Merlin ubiquitination entry in the experiment with Merlin [3] was “abolished”.

In the case of “OPN: Recombinant OPN (R&D Systems), human rOPN; secreted phosphoglycoprotein osteopontin”, the “protein levels of Merlin” value in the experiment with Merlin [4] was “decrease in the protein levels of Merlin”. Moreover, in the experiment on Akt (recombinant OPN alone), the “Akt activation (phosphorylation of Akt to phospho-Akt)” value is recorded as “activated Akt” and the “levels of Merlin” value is reported as “decrease in the levels of Merlin”. Moreover, the “ubiquitination of endogenous Merlin (smear)” value in the experiment with Merlin [2] (MCF10AT cells transfected with HA-ubiquitin, FIG. 4C) is “some ubiquitination”. Further, the Merlin ubiquitination result in the experiment on Merlin [3] was “enhanced”. Also, the “phosphorylation of Merlin at Ser315” value in the experiment on Merlin [5] was “phosphorylation of Merlin at the Ser315 position”.
